In patent US12122782B2, “Crystalline forms of 8-(2-fluorobenzyl)-6-(3-(trifluoromethyl)-1H-1,2,4-triazol-5-yl)imidazo[1,2-a]pyrazine as sGC stimulators” (Tisento Therapeutics Inc., priority 2018, dated 2024):

Test: Dynamic vapor sorption (DVS) adsorption/desorption
Type: physicochemical
Settings: up to 95% RH; isothermal at 25° C.; water as solvent
Experimental: The Adsorption/Desorption determination was performed using a Q5000 V3.3 TGA-SA instrument. […] The ramp was isothermal at 25° C. Water was used as the solvent for all DVS analysis. The data was analyzed with the Universal Analysis 2000 software.

moisture picked up (DVS): less than 0.4%
Structure (SMILES): Fc1ccccc1Cc1nc(-c2nc(C(F)(F)F)n[nH]2)cn2ccnc12 [Form A, 8-(2-fluorobenzyl)-6-(3-(trifluoromethyl)-1H-1,2,4-triazol-5-yl)imidazo[1,2-a]pyrazine]
